≈ marks a conversion by molar mass, not a printed value. Where two headings read alike, the source gives them in different places.
How the values were obtained:
Solubility in PBS = assay type: physicochemical
In short: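 HPLC quantitation of peptide remaining in the PBS supernatant after ultracentrifugation, referenced to a 50 μM solution in DMSO.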

CHI Log D procedure = assay type: physicochemical; details: pH 7.4, CHI Log D
[1] = target: T1, beta-catenin/TCF4 engagement (Homo sapiens, UniProt P35222); test: Nano-BRET target engagement assay (B-cat-Halo & TCF4-Luc in HEK293 cells); assay type: cell-based
T1 construct: expressed in transfected cells; host or cells: HEK293
T1 sequence (P35222 1-781): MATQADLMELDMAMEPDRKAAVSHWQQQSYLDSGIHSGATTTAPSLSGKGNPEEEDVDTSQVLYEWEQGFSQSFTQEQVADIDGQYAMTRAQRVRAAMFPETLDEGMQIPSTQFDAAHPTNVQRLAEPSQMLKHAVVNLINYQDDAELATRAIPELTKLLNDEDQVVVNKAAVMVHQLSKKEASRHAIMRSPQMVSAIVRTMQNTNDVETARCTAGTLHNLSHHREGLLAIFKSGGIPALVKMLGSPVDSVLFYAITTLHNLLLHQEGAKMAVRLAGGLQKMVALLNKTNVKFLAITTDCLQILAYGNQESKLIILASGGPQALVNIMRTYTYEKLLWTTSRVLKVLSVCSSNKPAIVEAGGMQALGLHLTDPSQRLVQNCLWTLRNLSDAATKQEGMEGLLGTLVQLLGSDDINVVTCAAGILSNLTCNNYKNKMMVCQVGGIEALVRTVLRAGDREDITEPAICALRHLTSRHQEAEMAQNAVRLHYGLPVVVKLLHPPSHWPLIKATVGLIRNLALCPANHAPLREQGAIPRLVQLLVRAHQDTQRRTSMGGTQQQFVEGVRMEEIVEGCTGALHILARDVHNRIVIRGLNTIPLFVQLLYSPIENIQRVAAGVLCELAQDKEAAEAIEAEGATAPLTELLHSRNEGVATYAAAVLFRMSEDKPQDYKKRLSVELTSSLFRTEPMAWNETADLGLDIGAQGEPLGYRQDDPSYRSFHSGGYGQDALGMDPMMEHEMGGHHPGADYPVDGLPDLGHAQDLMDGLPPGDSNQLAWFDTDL

[2] = test system: TCF/LEF luciferase Reporter in DLD1 cells; test: TCF reporter assay (DLD1 TCF/LEF luciferase reporter, Bright-Glo); assay type: cell-based
In short: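 DLD1 cells stably carrying a TCF/LEF luciferase reporter were plated at 5000 cells/well in RPMI + 4% FBS and treated overnight with a 1:2 compound dilution series. Bright-Glo luminescence read on day 3; viability by CellTiter-Glo. Absolute IC50 determined.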

[3] = target: T2, full-length beta-Catenin (Uniprot ID P35222) (Homo sapiens, UniProt P35222); test: Fluorescence polarization IC50 (beta-catenin / 5FAM-TCF4 10-53 competition); assay type: binding; details: read-out: beta-Catenin FP IC50
T2 construct: 10 nM full-length beta-Catenin (Uniprot ID P35222)
T2 sequence (P35222 1-781): T1 sequence (P35222 1-781)

[4] = read-out: DLD1 4% Abs IC50, DLD1 4%
[5] = absolute IC50, read-out: NanoBRET Abs IC50
[6] = absolute IC50, read-out: DLD1 reporter assay Abs IC50

SMILES	Solubility (Solubility in PBS; Solubility (uM)) [µM]	chromatographic logD (CHI Log D procedure)	IC50 ([1]; read-out: NanoBRET Abs IC50) [µM]	IC50 ([1]; read-out: NanoBRET IC50) [µM]	IC50 [2, 4] [µM]	IC50 [3] [µM]	IC50 [1, 5] [µM]	IC50 [2, 6] [µM]	Solubility (Solubility in PBS) [µM]
CC(=O)N1CCC[C@]12CC=CCCCC1(CCCC=CCCCOC(=O)N3CC[C@@](C(=O)N[C@@H](Cc4ccsc4)C(=O)N[C@@H](Cc4csc5ccccc45)C(=O)N[C@@H](CO)C(N)=O)(C3)NC(=O)[C@H](CC(N)=O)NC(=O)[C@H](Cc3ccccc3)NC(=O)[C@H](C)NC(=O)[C@H](C)NC(=O)[C@H](CC(=O)O)NC(=O)[C@H](CC(=O)O)NC1=O)NC(=O)[C@H](CC(C)(C)C)NC(=O)[C@H](CC(=O)O)NC2=O (stereo partly drawn) [I-815, Ac-PL3-Asp-Npg-B5-Asp-Asp-Ala-Ala-Phe-Asn-PyrS2-3Thi-BztA-Ser-NH2]	46 (≈ 86.3 µg/mL)	2.1	15.4	11.8	10.3	0.005	–	–	–
CC(=O)N1CCC[C@]12CC=CCCCC1(CCCC=CCCCCCC[C@@](C)(C(=O)N[C@@H](Cc3ccccc3Cl)C(=O)N[C@@H](Cc3csc4ccccc34)C(=O)N[C@@H](C(N)=O)[C@H](C)O)NC(=O)[C@H](CC(C)C)NC(=O)[C@H](Cc3ccccc3)NC(=O)[C@H](C)NC(=O)[C@H](C)NC(=O)[C@H](CC(=O)O)NC(=O)[C@H](CC(=O)O)NC1=O)NC(=O)[C@H](CC(C)(C)C)NC(=O)[C@H](CC(=O)O)NC2=O (stereo partly drawn) [I-1097, Ac-PL3-Asp-Npg-B5-Asp-Asp-Ala-Ala-Phe-Leu-S8-2C1F-BztA-dThr-NH2]	20 (≈ 37.5 µg/mL)	3.61	–	–	–	0.04	> 20	> 20	–
CC(=O)N1CCC[C@]12CC=CCCCC1(CCCC=CCCCOC(=O)N3CC[C@@](C(=O)N[C@@H](Cc4ccccc4Cl)C(=O)N[C@@H](Cc4csc5ccccc45)C(=O)N[C@@H](C(N)=O)[C@H](C)O)(C3)NC(=O)[C@H](CC(N)=O)NC(=O)[C@H](Cc3ccccc3)NC(=O)[C@H](C)NC(=O)[C@H](C)NC(=O)[C@H](CC(=O)O)NC(=O)[C@H](CC(=O)O)NC1=O)NC(=O)[C@H](CC(C)(C)C)NC(=O)[C@H](CC(=O)O)NC2=O (stereo partly drawn) [I-1028, Ac-PL3-Asp-Npg-B5-Asp-Asp-Ala-Ala-Phe-Asn-PyrS2-2C1F-BztA-dThr-NH2]	–	2.4	–	–	3.6	0.013	8.7	6.4	10 (≈ 19.2 µg/mL)
CC(=O)N1CCC[C@]12CC=CCCCC1(CCCC=CCCCOC(=O)N3CC[C@@](C(=O)N[C@@H](Cc4ccccc4Cl)C(=O)N[C@@H](Cc4csc5ccccc45)C(=O)N[C@@H](CCC(N)=O)C(N)=O)(C3)NC(=O)[C@H](CO)NC(=O)[C@H](Cc3ccccc3)NC(=O)[C@H](C)NC(=O)[C@H](C)NC(=O)[C@H](CC(=O)O)NC(=O)[C@H](CC(=O)O)NC1=O)NC(=O)[C@H](CC1CCCCC1)NC(=O)[C@H](CC(=O)O)NC2=O (stereo partly drawn) [I-1044, Ac-PL3-Asp-Cha-B5-Asp-Asp-Ala-Ala-Phe-Ser-PyrS2-2C1F-BztA-Gln-NH2]	43 (≈ 83.7 µg/mL)	2.32	–	–	14.5	0.005	17.6	20	–
CC(=O)N1CCC[C@]12CC=CCCCC1(CCCC=CCCCOC(=O)N3CC[C@@](C(=O)N[C@@H](Cc4ccccc4Cl)C(=O)N[C@@H](Cc4csc5ccccc45)C(=O)N[C@@H](CCC(N)=O)C(N)=O)(C3)NC(=O)[C@H](CC(N)=O)NC(=O)[C@H](Cc3ccccc3)NC(=O)[C@H](CO)NC(=O)[C@H](C)NC(=O)[C@H](CN(CC(=O)O)CC(F)(F)F)NC(=O)[C@H](CC(=O)O)NC1=O)NC(=O)[C@H](CC(C)(C)C)NC(=O)[C@H](CC(=O)O)NC2=O (stereo partly drawn) [I-1004, Ac-PL3-Asp-Npg-B5-Asp-TfeGA-Ala-Ser-Phe-Asn-PyrS2-2C1F-BztA-Gln-NH2]	47 (≈ 97.5 µg/mL)	2	–	–	–	0.005	10.6	> 20	–
